The record followed here is patent US7521560B2, “2-substituted quinoline compounds and their uses” (Rigel Pharmaceuticals, Inc., priority 2004, dated 2009).

The structures appear in SMILES notation.

The first assay relates to passive cutaneous anaphylaxis (PCA) response.
Test: not given
As to conditions: 8 mg/kg, i.p., 30 minutes pretreatment time, n=23 experiments.
On to `CN1CCC(=C2c3ccccc3C=Cc3ccccc32)CC1` [Cyproheptadine, cyproheptadine], for which the “inhibition of the PCA response” value is listed as 61%+/−4.

The same assay, now with this note: highest dose, 50 mg/kg, i.p., 30 minutes pretreatment time.
On to `CN(C)CCOC(c1ccccc1)c1ccccc1` [diphenhydramine], for which the “inhibition of the PCA response” value is recorded as “up to 86%”.

The next assay concerns cultured human mast cells (CHMC). The experiment in a line: CHMC low cell density IgE activation: tryptase release assay. The class given is cell-based. As to conditions: Homo sapiens, Mast cell, anti-IgE-induced tryptase release, low density CHMC. The method, then: Inhibition of degranulation was measured at low density (and could also be measures at high cell density) by quantifying the release of the granule specific factor tryptase. Tryptase was quantified using a fluorogenic substrates as described in its respective examples. Histamine, TNFα, IL-6, IL-13 and LTC4 can be quantified, if desired, using the following commercial ELISA kits: histamine (Immunotech #2015, Beckman Coulter), TNFα (Biosource #KHC3011), IL-6 (Biosource #KMC0061), IL-13 (Biosource #KHC0132) and LTC4 (Cayman Chemical #520211). The protocols for various assays are provided below.
A second phase is performed to convert the expanded CD34-negative progenitor cells into differentiated mucosal mast cells. These mucosal cultured human mast cells (“CHMC”) are derived from CD34+ cells isolated from umbilical cord blood and treated to form a proliferated population of CD34-negative progenitor cells, as described above. To produce the CD34-negative progenitor cells, the resuspension cycle for the culture was the same as that described above, except that the culture was seeded at a density of 425,000 cells/mL and 15% additional media was added on about day four or five without performing a cell count. Also, the cytokine composition of the medium was modified such that it contained SCF (200 ng/mL) and recombinant human IL-6 (200 ng/mL; Peprotech, Catalog No. 200-06 reconstituted to 100 ug/mL in sterile 10 mM acetic acid) (“CM/SCF/IL-6 medium”).
To duplicate 96-well U-bottom plates (Costar 3799) add 65 ul of compound dilutions or control samples that have been prepared in MT [137 mM NaCl, 2.7 mM KCl, 1.8 mM CaCl2, 1.0 mM MgCl2, 5.6 mM Glucose, 20 mM Hepes (pH 7.4), 0.1% Bovine Serum Albumin, (Sigma A4503)] containing 2% MeOH and 1% DMSO. Pellet CHMC cells (980 rpm, 10 min) and resuspend in pre-warmed MT. Add 65 ul of cells to each 96-well plate. Depending on the degranulation activity for each particular CHMC donor, load 1000-1500 cells/well. Mix four times followed by a 1 hr incubation at 37° C. During the 1 hr incubation, prepare 6× anti-IgE solution [rabbit anti-human IgE (1 mg/ml, Bethyl Laboratories A80-109A) diluted 1:167 in MT buffer]. Stimulate cells by adding 25 ul of 6× anti-IgE solution to the appropriate plates. Add 25 ul MT to un-stimulated control wells. Mix twice following addition of the anti-IgE. Incubate at 37° C. for 30 minutes. During the 30 minute incubation, dilute the 20 mM tryptase substrate stock solution [(Z-Ala-Lys-Arg-AMC.2TFA; Enzyme Systems Products, #AMC-246)] 1:2000 in tryptase assay buffer [0.1 M Hepes (pH 7.5), 10% w/v Glycerol, 10 uM Heparin (Sigma H-4898) 0.01% NaN3]. Spin plates at 1000 rpm for 10 min to pellet cells. Transfer 25 ul of supernatant to a 96-well black bottom plate and add 100 ul of freshly diluted tryptase substrate solution to each well. Incubate plates at room temperature for 30 min. Read the […] of the plates at 355 nm/460 nm on a spectrophotometric plate reader.
The results of low density CHMC assays for release of tryptase (Section 6.2.2) are provided for examplary quinoline compounds in TABLE 1, supra. In TABLE 1, a value of “+” indicates an IC50 of 20 μM or less; a value of “++” indicates an IC50 of 10 μM or less; and a value of “+++” indicates an IIC50 of 5 μM or less.
The term IC50 denotes the concentration needed to halve the response being measured. A lower IC50 goes with higher potency. In the case of `Clc1ccc2nc(Nc3cc(-c4ccccc4)n[nH]3)ccc2c1` [Compound 1, 6-chloro-2-(3-phenyl-1H-pyrazol-5-ylamino)quinoline], the IC50 was no more than 5 µM.

The molecule `Clc1cccc2ccc(Nc3n[nH]c(-c4ccccc4)c3Br)nc12` [Compound 2, 2-(4-bromo-5-phenyl-1H-pyrazol-3-ylamino)-8-chloroquinoline] displayed an IC50 of no more than 5 µM.

Molecule `Clc1ccc2nc(Nc3n[nH]c(-c4ccccc4)c3Br)ccc2c1` [Compound 3, 2-(4-bromo-5-phenyl-1H-pyrazol-3-ylamino)-6-chloroquinoline] showed an IC50 of no more than 5 µM.

For `NC(=O)c1[nH]cnc1Nc1ccc2cc(Cl)ccc2n1` [Compound 4, 2-(5-aminocarbonyl-1H-imidazol-4-ylamino)-6-chloroquinoline], the half-maximal inhibitory concentration (IC50) is no more than 5 µM.

On to `NC(=O)c1[nH]cnc1Nc1ccc2cccc(Cl)c2n1` [Compound 5, 2-(5-aminocarbonyl-1H-imidazol-4-ylamino)-8-chloroquinoline], for which the IC50 was no more than 5 µM.

Turning to `NC(=O)c1c[nH]nc1Nc1ccc2cccc(Cl)c2n1` [Compound 6, 2-(4-aminocarbonyl-1H-pyrazol-3-ylamino)-8-chloroquinoline], the concentration for half-maximal inhibition (IC50) is no more than 5 µM.

Consider `Clc1cccc2ccc(Nc3cc(-c4ccccc4)n[nH]3)nc12` [Compound 7, 8-chloro-2-(3-phenyl-1H-pyrazol-5-ylamino)quinoline], for which the IC50 is no more than 5 µM.

Molecule `Clc1cccc2ccc(Nc3cc(-c4cccs4)n[nH]3)nc12` [Compound 8, 8-chloro-2-(3-thiophen-2-yl-1H-pyrazol-5-ylamino)quinoline] returned a 50% inhibitory concentration (IC50) of no more than 5 µM.

Regarding `Clc1ccc2nc(Nc3cc(-c4cccs4)n[nH]3)ccc2c1` [Compound 9, 6-chloro-2-(3-thiophen-2-yl-1H-pyrazol-5-ylamino)quinoline], the concentration for half-maximal inhibition (IC50) was no more than 5 µM.

Molecule `COc1ccc(-c2cc(Nc3ccc4cccc(Cl)c4n3)n[nH]2)cc1` [Compound 10, 8-chloro-2-[5-(4-methoxyphenyl)-1H-pyrazol-3-ylamino]quinoline] had an IC50 of no more than 5 µM.

`COc1ccc(-c2cc(Nc3ccc4cc(Cl)ccc4n3)n[nH]2)cc1` [Compound 11, 6-chloro-2-[5-(4-methoxyphenyl)-1H-pyrazol-3-ylamino]quinoline] displayed an IC50 of no more than 5 µM.

Molecule `Cc1cc(Nc2ccc3cccc(Cl)c3n2)n[nH]1` [Compound 12, 8-chloro-2-(5-methyl-1H-pyrazol-3-ylamino)quinoline] came in with a half-inhibitory concentration (IC50) of no more than 5 µM.

On to `CC(C)(C)c1cc(Nc2ccc3cccc(Cl)c3n2)n[nH]1` [Compound 13, 2-(5-tert-butyl-1H-pyrazol-3-ylamino)-8-chloroquinoline], for which the IC50 is no more than 10 µM.

`Cc1cc(Nc2nc[nH]c2C(N)=O)nc2ccccc12` [Compound 15, 2-(5-aminocarbonyl-1H-imidazol-4-ylamino)-4-methylquinoline] gave an IC50 of no more than 10 µM.

In the case of `NC(=O)c1c[nH]nc1Nc1ccc2cc(Cl)ccc2n1` [Compound 16, 2-(4-aminocarbonyl-1H-pyrazol-3-ylamino)-6-chloroquinoline], the 50% inhibitory concentration (IC50) was no more than 10 µM.

Take `CCOC(=O)c1c[nH]nc1Nc1ccc2cccc(Cl)c2n1` [Compound 17, 8-chloro-2-(4-ethoxycarbonyl-1H-pyrazol-3-ylamino)quinoline]: the concentration for half-maximal inhibition (IC50) was no more than 10 µM.

The molecule `CNC(=O)c1cc(Nc2nc[nH]c2C(N)=O)nc2ccccc12` [Compound 18, 2-(5-aminocarbonyl-1H-imidazol-4-ylamino)-4-methylaminocarbonylquinoline] registered an IC50 of no more than 10 µM.

The molecule `Clc1cccc2ccc(Nc3cc[nH]n3)nc12` [Compound 19, 8-chloro-2-(1H-pyrazol-3-ylamino)quinoline] returned an IC50 of no more than 20 µM.

For `N#Cc1c[nH]nc1Nc1ccc2cccc(Cl)c2n1` [Compound 20, 8-chloro-2-(4-cyano-1H-pyrazol-3-ylamino)quinoline], the half-inhibitory concentration (IC50) is no more than 20 µM.

The molecule `Oc1cccc2ccc(Nc3nc[nH]c3Cl)nc12` [Compound 21, 2-(5-chloro-1H-imidazol-4-ylamino)-8-hydroxyquinoline] came in with an IC50 greater than 20 µM.

The molecule `NC(=O)c1[nH]cnc1Nc1cc(C(=O)N2CCOCC2)c2ccccc2n1` [Compound 22, 2-(5-aminocarbonyl-1H-imidazol-4-ylamino)-4-(4-morpholinocarbonyl)quinoline] came in with a half-inhibitory concentration (IC50) greater than 20 µM.

Staying with this assay, now noted: Homo sapiens, Mast cell, anti-IgE-induced tryptase release, low density CHMC; stated in text.
`Oc1cccc2ccc(Nc3nc[nH]c3Cl)nc12` [Compound 21, 2-(5-chloro-1H-imidazol-4-ylamino)-8-hydroxyquinoline]: the IC50 was greater than 20 µM.

As to `NC(=O)c1[nH]cnc1Nc1cc(C(=O)N2CCOCC2)c2ccccc2n1` [Compound 22, 2-(5-aminocarbonyl-1H-imidazol-4-ylamino)-4-(4-morpholinocarbonyl)quinoline], the concentration for half-maximal inhibition (IC50) was greater than 20 µM.

The same assay, now with this note: referring to TABLE 1.
With `CCOC(=O)c1c[nH]nc1Nc1ccc2cccc(Cl)c2n1` [Compound 17, 8-chloro-2-(4-ethoxycarbonyl-1H-pyrazol-3-ylamino)quinoline], the “activity in "prodrug" form” value is on record as “active”.

As to `CNC(=O)c1cc(Nc2nc[nH]c2C(N)=O)nc2ccccc12` [Compound 18, 2-(5-aminocarbonyl-1H-imidazol-4-ylamino)-4-methylaminocarbonylquinoline], the “activity in "prodrug" form” value is given as “active”.
